Data as given in patent publication US20260041679A1, “METHOD OF TREATING HYPERTENSION WITH THE ALDOSTERONE SYNTHASE INHIBITOR BAXDROSTAT” (CINCOR PHARMA, INC., priority 2022, published 2026).

Test system: patients with uHTN
Test: Study 124 Part 1: seated SBP in patients with uncontrolled hypertension (Example 9)
Format: in vivo, human
Set-up: key to Model-Based Least-Squares Mean Change from Baseline (SBP) / LSMEANS change from baseline (SBP) / Model-Based Least-Square Mean Change from Baseline (SBP): LS mean change from baseline in seated SBP, mmHg
Experimental: Study 124 is a double-blind, placebo-controlled, dose range finding, multicenter study conducted in patients with uHTN receiving background antihypertensive agent(s) that are either an ACEI or an ARB, an ACEI/ARB plus a thiazide diuretic, or an ACEI/ARB plus a calcium channel blocker. The study consists of two parts: Part 1 consists of an 8-week treatment period in which the patients are to be assigned to one of 4 dose groups in equal ratio testing 0.5 mg, 1 mg, and 2 mg baxdrostat effects compared to a placebo. Patients are to administer double-blind baxdrostat tablets once per day while they continue taking the background antihypertensive medications. After 8 weeks of double-blind treatment, patients were to enter part 2 of the study unless the patient was assigned to the 2 mg group and the SBP remains ≥130 mmHg. In part 2 of the study, all patients are to cease dosing with background antihypertensive medication and take only baxdrostat 2 mg dose as a monotherapy for 4 weeks.
Key inclusion criteria include that patients are on a stable regimen of anti-hypertensive agents for at least 8 weeks; and have a seated BP≥140 mmHg. Key exclusion criteria include a seated SBP≥180 mmHg and estimated glomerular filtration rate (eGFR)<30 mL/min/1.73 m^2.
In this table, CI=confidence interval, DBP=diastolic blood pressure, LS=least squares, SBP=systolic blood pressure, SE=standard error. The LS means, CIs, and p-values are from an MMRM model with change from baseline as the dependent variable with randomized treatment, visit, and treatment-by-visit interaction as fixed categorical effects; along with covariates of the baseline value, race (African American versus non-African American), and the type of background antihypertensive regimen. The restricted maximum likelihood estimation (REML) approach will be used with an unstructured covariance matrix and the Kenward-Roger approximation for degrees of freedom.

[1] = 0.5 mg (N = 11), mITT Population for Compliance for Black Patients
[2] = 0.5 mg (N = 11), mITT, Female Non-Hispanic Female Patients
[3] = 0.5 mg (N = 12), mITT, Non-Hispanic Male Patients
[4] = 0.5 mg (N = 15), mITT, Hispanic Male Patients
[5] = 1 mg (N = 11), mITT, Female Non-Hispanic Female Patients
[6] = 1 mg (N = 13), mITT Population for Compliance for Black Patients
[7] = 1 mg (N = 14), mITT, Female Hispanic/Latino Patients
[8] = 1 mg (N = 14), mITT, Hispanic Male Patients
[9] = 1 mg (N = 22), mITT, Non-Hispanic Male Patients

SMILES: CCC(=O)N[C@@H]1CCCc2c(-c3ccc4c(c3)CCC(=O)N4C)cncc21 [baxdrostat, (R)—N-(4-(1-methyl-2-oxo-1,2,3,4-tetrahydroquinolin-6-yl)-5,6,7,8-tetrahydroisoquinolin-8-yl) propionamide]
- SBP Change from Baseline to Week 8, Mean (0.5 mg): −17.0 mmHg
- SBP Change from Baseline to Week 8, Median (0.5 mg): −17.0 mmHg
- SBP at Week 8, Median (0.5 mg): 127.0 mmHg
- Model-Based Least-Square Mean Change from Baseline (SBP) (0.5 mg (N = 11), Week 2, mITT Population for Compliance for Black Patients): −9.0
- Model-Based Least-Squares Mean Change from Baseline (SBP) (0.5 mg (N = 11), Week 2, mITT, Female Non-Hispanic Female Patients): −12.5
- Model-Based Least-Square Mean Change from Baseline (SBP) (0.5 mg (N = 11), Week 4, mITT Population for Compliance for Black Patients): −11.6
- Model-Based Least-Squares Mean Change from Baseline (SBP) (0.5 mg (N = 11), Week 4, mITT, Female Non-Hispanic Female Patients): −12.2
- Model-Based Least-Square Mean Change from Baseline (SBP) (0.5 mg (N = 11), Week 6, mITT Population for Compliance for Black Patients): −13.0
- Model-Based Least-Squares Mean Change from Baseline (SBP) (0.5 mg (N = 11), Week 6, mITT, Female Non-Hispanic Female Patients): −11.8
- Model-Based Least-Square Mean Change from Baseline (SBP) (0.5 mg (N = 11), Week 8, mITT Population for Compliance for Black Patients): −17.2
- Model-Based Least-Squares Mean Change from Baseline (SBP) (0.5 mg (N = 11), Week 8, mITT, Female Non-Hispanic Female Patients): −16.7
- Comp w/ Placebo at Week 6, Diff (95% CI) [1]: −2.6 (−14.94, 9.64)
- Comp w/ Placebo at Week 8, Diff (95% CI) [1]: −3.0 (−13.58, 7.49)
- Comp w/ Placebo at Week 6, Diff (95% CI) [2]: −1.5 (−13.92, 10.84)
- Comp w/ Placebo at Week 8, Diff (95% CI) [2]: −3.7 (−13.14, 5.67)
- Model-Based Least-Squares Mean Change from Baseline (SBP) (0.5 mg (N = 12), Week 2, mITT, Non-Hispanic Male Patients): −19.9
- Model-Based Least-Squares Mean Change from Baseline (SBP) (0.5 mg (N = 12), Week 4, mITT, Non-Hispanic Male Patients): −20.5
- Model-Based Least-Squares Mean Change from Baseline (SBP) (0.5 mg (N = 12), Week 6, mITT, Non-Hispanic Male Patients): −16.3
- Model-Based Least-Squares Mean Change from Baseline (SBP) (0.5 mg (N = 12), Week 8, mITT, Non-Hispanic Male Patients): −17.2
- Comp w/ Placebo at Week 6, Diff (95% CI) [3]: −6.4 (−17.23, 4.48)
- Comp w/ Placebo at Week 8, Diff (95% CI) [3]: −2.2 (−12.46, 8.04)
- Model-Based Least-Squares Mean Change from Baseline (SBP) (0.5 mg (N = 15), Week 2, mITT, Hispanic Male Patients): −8.3
- Model-Based Least-Squares Mean Change from Baseline (SBP) (0.5 mg (N = 15), Week 4, mITT, Hispanic Male Patients): −12.6
- Model-Based Least-Squares Mean Change from Baseline (SBP) (0.5 mg (N = 15), Week 6, mITT, Hispanic Male Patients): −16.0
- Model-Based Least-Squares Mean Change from Baseline (SBP) (0.5 mg (N = 15), Week 8, mITT, Hispanic Male Patients): −18.6
- Comp w/ Placebo at Week 6, Diff (95% CI) [4]: −4.7 (−12.73, 3.30)
- Comp w/ Placebo at Week 8, Diff (95% CI) [4]: 0.1 (−6.20, 6.41)
- SBP at Week 8, Mean (0.5 mg QD, mITT): 129.1 mmHg
- SBP LS mean change from baseline (SE), MMRM (0.5 mg, Week 8): −17 (1.63) mm Hg
- SBP LS mean difference (SE) vs placebo (0.5 mg, Week 8): −0.5 (2.21) mmHg
- LS Mean Change from Baseline (SE) in SBP (0.5 mg, Wk 2): −10.3 (1.61) mm Hg
- LS Mean Change from Baseline (SE) in SBP (0.5 mg, Wk 4): −14.2 (1.61) mm Hg
- LS Mean Change from Baseline (SE) in SBP (0.5 mg, Wk 6): −13.5 (1.88) mm Hg
- SBP Change from Baseline to Week 8, Mean (1 mg): −16.6 mmHg
- SBP Change from Baseline to Week 8, Median (1 mg): −16.0 mmHg
- SBP at Week 8, Median (1 mg): 128.0 mmHg
- Model-Based Least-Squares Mean Change from Baseline (SBP) (1 mg (N = 11), Week 2, mITT, Female Non-Hispanic Female Patients): −11.8
- Model-Based Least-Squares Mean Change from Baseline (SBP) (1 mg (N = 11), Week 4, mITT, Female Non-Hispanic Female Patients): −13.5
- Model-Based Least-Squares Mean Change from Baseline (SBP) (1 mg (N = 11), Week 6, mITT, Female Non-Hispanic Female Patients): −20.3
- Model-Based Least-Squares Mean Change from Baseline (SBP) (1 mg (N = 11), Week 8, mITT, Female Non-Hispanic Female Patients): −23.8
- Comp w/ Placebo at Week 6, Diff (95% CI) [5]: −10.0 (−22.06, 2.15)
- Comp w/ Placebo at Week 8, Diff (95% CI) [5]: −10.8 (−20.05, −1.63)
- Model-Based Least-Square Mean Change from Baseline (SBP) (1 mg (N = 13), Week 2, mITT Population for Compliance for Black Patients): −8.9
- Model-Based Least-Square Mean Change from Baseline (SBP) (1 mg (N = 13), Week 4, mITT Population for Compliance for Black Patients): −11.8
- Model-Based Least-Square Mean Change from Baseline (SBP) (1 mg (N = 13), Week 6, mITT Population for Compliance for Black Patients): −13.5
- Model-Based Least-Square Mean Change from Baseline (SBP) (1 mg (N = 13), Week 8, mITT Population for Compliance for Black Patients): −17.4
- Comp w/ Placebo at Week 6, Diff (95% CI) [6]: −3.1 (−14.59, 8.31)
- Comp w/ Placebo at Week 8, Diff (95% CI) [6]: −3.2 (−12.88, 6.52)
- Model-Based Least-Squares Mean Change from Baseline (SBP) (1 mg (N = 14), Week 2, mITT, Female Hispanic/Latino Patients): −7.8
- Model-Based Least-Squares Mean Change from Baseline (SBP) (1 mg (N = 14), Week 2, mITT, Hispanic Male Patients): −7.0
- Model-Based Least-Squares Mean Change from Baseline (SBP) (1 mg (N = 14), Week 4, mITT, Female Hispanic/Latino Patients): −10.3
- Model-Based Least-Squares Mean Change from Baseline (SBP) (1 mg (N = 14), Week 4, mITT, Hispanic Male Patients): −6.4
- Model-Based Least-Squares Mean Change from Baseline (SBP) (1 mg (N = 14), Week 6, mITT, Female Hispanic/Latino Patients): −12.6
- Model-Based Least-Squares Mean Change from Baseline (SBP) (1 mg (N = 14), Week 6, mITT, Hispanic Male Patients): −9.2
- Model-Based Least-Squares Mean Change from Baseline (SBP) (1 mg (N = 14), Week 8, mITT, Female Hispanic/Latino Patients): −12.7
- Model-Based Least-Squares Mean Change from Baseline (SBP) (1 mg (N = 14), Week 8, mITT, Hispanic Male Patients): −15.8
- Comp w/ Placebo at Week 6, Diff (95% CI) [7]: −6.2 (−19.55, 7.07)
- Comp w/ Placebo at Week 8, Diff (95% CI) [7]: 6.4 (−5.38, 18.10)
- Comp w/ Placebo at Week 6, Diff (95% CI) [8]: 2.1 (−6.16, 10.29)
- Comp w/ Placebo at Week 8, Diff (95% CI) [8]: 2.9 (−3.41, 9.25)
- Model-Based Least-Squares Mean Change from Baseline (SBP) (1 mg (N = 22), Week 2, mITT, Non-Hispanic Male Patients): −6.8
- Model-Based Least-Squares Mean Change from Baseline (SBP) (1 mg (N = 22), Week 4, mITT, Non-Hispanic Male Patients): −10.3
- Model-Based Least-Squares Mean Change from Baseline (SBP) (1 mg (N = 22), Week 6, mITT, Non-Hispanic Male Patients): −14.2
- Model-Based Least-Squares Mean Change from Baseline (SBP) (1 mg (N = 22), Week 8, mITT, Non-Hispanic Male Patients): −14.7
- Comp w/ Placebo at Week 6, Diff (95% CI) [9]: −4.3 (−13.56, 5.00)
- Comp w/ Placebo at Week 8, Diff (95% CI) [9]: 0.2 (−8.82, 9.26)
- SBP at Week 8, Mean (1 mg QD, mITT): 130.8 mmHg
- SBP LS mean change from baseline (SE), MMRM (1 mg, Week 8): −16 (1.62) mm Hg
- SBP LS mean difference (SE) vs placebo (1 mg, Week 8): 0.6 (2.20) mmHg
- LS Mean Change from Baseline (SE) in SBP (1 mg, Wk 2): −7.7 (1.6) mm Hg
- LS Mean Change from Baseline (SE) in SBP (1 mg, Wk 4): −9.7 (1.59) mm Hg
